Data taken from ChEMBL document CHEMBL5528062 (J Med Chem, 2024).

Tests used:
[1] = tested on: Mycobacterium tuberculosis; assay: Induction of resistance development in Mycobacterium tuberculosis harbouring katG F594C mutant assessed as resistance frequency at 5 times of MIC by visual analysis; assay type: functional
[2] = tested on: Mycobacterium tuberculosis; assay: Induction of resistance development in Mycobacterium tuberculosis harbouring atpE gene assessed as resistance frequency at 5 times of MIC by visual analysis; assay type: functional

| Structure (SMILES) | Activity [1] [%] | Activity [2] [%] |
| --- | --- | --- |
| COc1nc2ccc(Br)cc2cc1[C@@H](c1ccccc1)[C@@](O)(CCN(C)C)c1cccc2ccccc12 [BEDAQUILINE] | 5.26 | 17.3 |
| C[C@]1(COc2ccc(N3CCC(Oc4ccc(OC(F)(F)F)cc4)CC3)cc2)Cn2cc([N+](=O)[O-])nc2O1 | 2 | – |
